Literature values in patent US12350296B2, “Liquid propolis extract, its formulation and use thereof” (Apiotix Technologies D.O.O., priority 2019, dated 2025).
Where two headings read alike, the source gives them in different places.

Tested on: subclinical mastitis
Details: for healing (cure) of cases: subclinical mastitis caused by S. uberis

Compound | bacteriological cure (daily i.mam. application during 8 days) | bacteriological cure (i.mam. application, after 5 days) | healing (cure) of cases (therapy for 5 days) | healing (cure) of cases (therapy for 8 days) | healing (cure) of cases (two-day therapy)
CO/N=C(\C(=O)N[C@@H]1C(=O)N2C(C(=O)O)=C(CSC(=O)c3ccco3)CS[C@H]12)c1csc(N)n1 [ceftiofur] | 66% | 54% |  |  | 
CC[C@@H]1CCN[C@H](C(=O)N[C@@H]([C@H]2O[C@H](SC)[C@H](O)[C@@H](O)[C@H]2O)[C@H](C)Cl)C1 [pirlimycin] |  |  | 68.8% | 80% | 58.1%
